≈ marks a conversion by molar mass, not a printed value. Where a SMILES comes first, the peptide text is derived from it.

One series relates to E. faecalis ATCC29212. Type of series: cell-based, Enterococcus faecalis. The source says:
(§1) The bacterial strains used were E. coli C498, E. coli C500, Escherichia coli UB1005 and its antibiotic supersusceptible derivative DC2 (22); a clinical isolate of Staphylococcus epidermidis (C621); coryneform bacterial strain Corynebacterium xerosis (C875); and E. coli ATCC 25922, Staphylococcus aureus ATCC 25923, Enterococcus faecalis ATCC 29212, Bacillus subtilis ATCC 6633 and Pseudomonas aeruginosa ATCC 27853, all from American Type Culture Collection.
(§2) Peptide antibacterial activity was assessed by the method of R. Hancock et al. (Wu & Hancock (1999), J. Biol. Chem., v. 274, pp. 29-35). Test strains of bacteria from Mueller Hinton agar (MHA) plates were inoculated into 5 ml Mueller Hinton Broth (MHB) in tubes and grown overnight at 37° C. on a shaker (180 rpm). Serial dilutions of test peptides (at 10 times the required test concentrations) were made in 0.01% acetic acid, 0.2% BSA, in polypropylene or coated glass tubes as follows: the test peptide was (a) dissolved in distilled water at 20 times the required maximum concentration (enough final volume for all tests to be performed on a given day); (b) diluted into an equal volume of 0.02% acetic acid, 0.4% BSA to give 10 times the required maximum concentration; (c) serial doubling dilutions were performed in 0.01% acetic acid, 0.2% BSA to provide serial dilutions of peptides at 10 times the required test concentrations, e.g., 640, 320, 160, . . . 2.5 μg/ml. (No deleterious effects of long-term storage of peptides in these media have been detected). Overnight bacterial cultures were diluted in MHB to give 2−7×10^5 colony forming units/ml. Bacterial suspension (100 μl) was dispensed in each well; controls without bacteria were maintained in parallel. To each well was added 11 μl of 10× test peptide and plates were incubated at 37° C. for 18-24 hours, and checked again at 40-48 hours. Plates were read visually and at 600 nm in a microplate reader (Molecular Devices).
(§3) A further number of the peptides of the invention were tested for antimicrobial activity against a range of Gram-positive and Gram-negative bacteria by the assay described immediately before Example 1.

Series [1] deals with Corynebacterium xerosis (C875). Type of series: cell-based. An outline of the steps: (§4)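 Broth microdilution in Mueller Hinton Broth, inoculum 2−7×10^5 CFU/ml. Peptides serially doubled in 0.01% acetic acid, 0.2% BSA and added at 10× final concentration. Incubation 37° C for 18-24 h, rechecked at 40-48 h; growth read visually and at 600 nm.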
For series [2], the system named is Staphylococcus epidermidis (C621). Type of series: cell-based. The following applies: C621. The method in brief: as §4
In the next series the test system is E. coli UB1005. Type of series: cell-based, Escherichia coli. Conditions: UB1005. An outline of the steps:
(§5)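 Overnight cultures were diluted in Mueller Hinton broth to 2−7×10^5 CFU/ml and mixed with serially doubled peptides prepared in 0.01% acetic acid with 0.2% BSA. Plates were incubated at 37° C for 18-24 hours, checked again at 40-48 hours, and read by eye and at 600 nm.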

A further series concerns B. subtilis ATCC6633. Type of series: cell-based, Bacillus subtilis.
From the text: as §1, §2, §3

Series [3] concerns C500: E. coli, antibiotic strain. The format is cell-based. The following applies: C500: , antibiotic strain. An outline of the steps:
(§6)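 Broth microdilution in Mueller Hinton Broth, 2−7×10^5 CFU/ml, peptides added from 10× stocks serially diluted in 0.01% acetic acid, 0.2% BSA. Incubated at 37° C for 18-24 hours, rechecked at 40-48 hours; growth read visually and at 600 nm.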

The subject of series [4] is C498: E. coli, wild type strain. The format is cell-based. The following applies: C498: , wild type strain. The method in brief: as §6
The next series has as its system Rabbit RBC. The format is cell-based. The method in brief:
(§7)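 Washed rabbit or human erythrocytes (4% v/v in PBS pH 7.3) incubated with peptide dilutions 1 h at 37° C. Hemoglobin release read at 540 nm in supernatant, relative to PBS control and 0.1% Triton X-100 as 100% lysis; peptides tested at […].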

A further series relates to Human RBC. Type of series: cell-based. An outline of the steps: as §7
In a further series the test system is P. aeruginosa ATCC27853. Type of series: cell-based, Pseudomonas aeruginosa.
From the text: as §1, §2, §3

The next series relates to E. coli DC2. The series is described as follows: Assay of antibacterial activity (MIC), E. coli DC2. Type of series: cell-based, Escherichia coli. The method in brief:
as §5

For the next series, the system named is S. aureus ATCC25923. Type of series: cell-based, Staphylococcus aureus.
From the text: as §1, §2, §3

Another series relates to E. coli ATCC25922. The format is cell-based.
From the text: as §1, §2, §3

Take `C[C@H](NC(=O)[C@H](C)NC(=O)[C@H](C)NC(=O)[C@H](Cc1ccccc1)NC(=O)[C@H](C)NC(=O)[C@H](CCCCN)NC(=O)[C@@H](N)CCCCN)C(=O)N[C@@H](C)C(=O)N[C@@H](C)C(=O)N[C@@H](Cc1ccccc1)C(=O)N[C@@H](C)C(=O)N[C@@H](C)C(=O)N[C@@H](Cc1c[nH]c2ccccc12)C(=O)N[C@@H](C)C(=O)N[C@@H](C)C(=O)N[C@@H](Cc1ccccc1)C(=O)N[C@@H](C)C(=O)N[C@@H](CCCCN)C(=O)N[C@@H](CCCCN)C(=O)N[C@@H](CCCCN)C(=O)N[C@@H](CCCCN)C(N)=O` [Peptide F21] (H-KKAFAAAAAFAAWAAFAKKKK-NH2; N-terminus assumed): the “MIC E. faecalis ATCC29212” value with E. faecalis ATCC29212 is above 32 µM. The “MIC C. xerosis C875” value in series [1] is 0.5 µM (≈ 1.1 µg/mL). Besides, in series [2], the “MIC C621” value fell in the range of 8 to 16 µM and the “MIC S. epidermidis C621” value was 8 µM (≈ 17.6 µg/mL). The “MIC E. coli UB1005” value in the series with E. coli UB1005 came out at 8 µM (≈ 17.6 µg/mL). Further, the “MIC B. subtilis ATCC6633” value with B. subtilis ATCC6633 is 2 µM (≈ 4.39 µg/mL). For the same compound, in [3], the “MIC C500” value was 4 µM (≈ 8.78 µg/mL). Besides, in series [4], the “MIC C498” value is 8 µM (≈ 17.6 µg/mL). In the series on Rabbit RBC, the “Rabbit RBC (% lysis) 50 μM” value was 1 % lysis and the “Rabbit RBC (% lysis) 200 μM” value is recorded as 3 % lysis. In the series with Human RBC, the “Human RBC (% lysis) 50 μM” value stood at 0 % lysis and the “Human RBC (% lysis) 200 μM” value is listed as 0 % lysis. The “MIC P. aeruginosa ATCC27853” value in the series on P. aeruginosa ATCC27853 was above 32 µM. Also, the “MIC E. coli DC2” value against E. coli DC2 (Table 5A) amounted to 4 µM (≈ 8.78 µg/mL). Further, in the series with S. aureus ATCC25923, the “MIC S. aureus ATCC25923” value was above 32 µM. In addition, the “MIC E. coli ATCC25922” value against E. coli ATCC25922 came out at 32 µM (≈ 70.3 µg/mL).

For `C[C@H](NC(=O)[C@H](C)NC(=O)[C@H](C)NC(=O)[C@H](Cc1ccccc1)NC(=O)[C@H](C)NC(=O)[C@H](C)NC(=O)[C@H](C)NC(=O)[C@H](CCCCN)NC(=O)[C@@H](N)CCCCN)C(=O)N[C@@H](C)C(=O)N[C@@H](C)C(=O)N[C@@H](Cc1ccccc1)C(=O)N[C@@H](C)C(=O)N[C@@H](C)C(=O)N[C@@H](Cc1c[nH]c2ccccc12)C(=O)N[C@@H](C)C(=O)N[C@@H](C)C(=O)N[C@@H](Cc1ccccc1)C(=O)N[C@@H](C)C(=O)N[C@@H](C)C(=O)N[C@@H](C)C(=O)N[C@@H](CCCCN)C(=O)N[C@@H](CCCCN)C(=O)N[C@@H](CCCCN)C(=O)N[C@@H](CCCCN)C(N)=O` [Peptide F25] (H-KKAAAFAAAAAFAAWAAFAAAKKKK-NH2; N-terminus assumed), the “MIC E. faecalis ATCC29212” value against E. faecalis ATCC29212 was above 32 µM. Further, in series [1], the “MIC C875” value came out at 0.25 µM (≈ 0.62 µg/mL) and the “MIC C. xerosis C875” value is below 0.25 µM. Besides, in series [2], the “MIC C621” value lay within 0.5 to 2 µM and the “MIC S. epidermidis C621” value came out at 2 µM (≈ 4.96 µg/mL). The “MIC E. coli UB1005” value in the series with E. coli UB1005 stood at 16 µM (≈ 39.7 µg/mL). The “MIC B. subtilis ATCC6633” value with B. subtilis ATCC6633 came out at 1 µM (≈ 2.48 µg/mL). In [3], the “MIC C500” value amounted to 4 µM (≈ 9.92 µg/mL). Moreover, the “MIC C498” value in series [4] worked out at 8 µM (≈ 19.8 µg/mL). For the same compound, in the series on Rabbit RBC, the “Rabbit RBC (% lysis) 50 μM” value was 0 % lysis and the “Rabbit RBC (% lysis) 200 μM” value was determined as 4 % lysis. Further, in the series on Human RBC, the “Human RBC (% lysis) 50 μM” value is on record as 0 % lysis and the “Human RBC (% lysis) 200 μM” value came to 1 % lysis. The “MIC P. aeruginosa ATCC27853” value against P. aeruginosa ATCC27853 was determined as 8 µM (≈ 19.8 µg/mL). For the same compound, in the series with E. coli DC2 (Table 3, Gram-negative), the “MIC E. coli DC2” value stood at 4 µM (≈ 9.92 µg/mL). Also, the “MIC E. coli DC2” value against E. coli DC2 (Table 5A) was 4 µM (≈ 9.92 µg/mL). In addition, the “MIC S. aureus ATCC25923” value against S. aureus ATCC25923 is above 32 µM. The “MIC E. coli ATCC25922” value in the series on E. coli ATCC25922 is above 32 µM.

The values above are taken from patent US20080234188A1, “Antimicrobial Peptides” (The Hospital for Sick Children, priority 2001, published 2008).
